We go through seven compounds from PubChem BioAssay (NCI).

Test systems include SN12C renal; OVCAR-8 ovarian; MCF7 breast; MDA-MB-231 breast; SK-MEL-28 melanoma; HL-60(TB) leukemia; CCRF-CEM leukemia; OVCAR-5 ovarian; NCI-H226 lung; 786-0 renal; KM12 colon; SF-539 CNS; BT-549 breast; IGROV1 ovarian; MALME-3M melanoma; NCI-H460 lung; DU-145 prostate; A549 NSCLC; A498 renal; MDA-MB-435.
Common to all, as to test: DTP human tumour cell line panel, 48 h

As usually defined, the TGI is the concentration at which net growth stops. A lower TGI goes with greater sensitivity of the cells.

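Briefly, cells in 96-well plates were exposed to five compound concentrations for 48 h, and endpoints were estimated by linear interpolation. TGI marks complete inhibition of growth.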

As to `O=C1N[C@@H]2c3c(Br)sc(Br)c3C(=O)[C@@H]2N1`, the TGI in the experiment on SN12C renal is 14.5 µM; in the experiment with OVCAR-8 ovarian, 10.5 µM; in the experiment on MCF7 breast it was 10.1 µM; in the experiment on MDA-MB-231 breast it was 10.9 µM; in the experiment with SK-MEL-28 melanoma, 12.3 µM; in the experiment with HL-60(TB) leukemia, 5.36 µM. The TGI with CCRF-CEM leukemia was found to be 3.29 µM; with OVCAR-5 ovarian it was 35.1 µM; in the experiment with NCI-H226 lung it was 91.2 µM; in the experiment on 786-0 renal, 6.4 µM; in the experiment on KM12 colon, 19.4 µM; in the experiment with SF-539 CNS, 8.88 µM. Besides, the TGI was 53 µM with BT-549 breast; 7.16 µM in the experiment with IGROV1 ovarian; 18.3 µM in the experiment on MALME-3M melanoma; 18.3 µM in the experiment on NCI-H460 lung; 17.2 µM in the experiment on DU-145 prostate; 30 µM with A549 NSCLC. In addition, the figures for the TGI in the experiment on A498 renal and with MDA-MB-435 were 34 µM and 4.83 µM, respectively.

Consider `c1ccc2nc3cc4c(cc3nc2c1)NC12CCCCC1CC1=C(CCCC1)N42` (stereo not given), for which the TGI in the experiment on SN12C renal is 6.48 µM; in the experiment on OVCAR-8 ovarian it was > 10 µM; in the experiment with MCF7 breast, > 10 µM; in the experiment on MDA-MB-231 breast, > 10 µM; in the experiment on SK-MEL-28 melanoma, > 10 µM; in the experiment with HL-60(TB) leukemia, 8.31 µM. Further, the concentration for total growth inhibition (TGI) with CCRF-CEM leukemia was 4.9 µM; in the experiment on OVCAR-5 ovarian it was > 10 µM; in the experiment on NCI-H226 lung, 6.57 µM; in the experiment on 786-0 renal, > 10 µM; with KM12 colon, 8.14 µM; in the experiment on SF-539 CNS, 7.7 µM. Besides, the TGI in the experiment with BT-549 breast was 4.72 µM; with IGROV1 ovarian it was > 10 µM; in the experiment with MALME-3M melanoma, 5.33 µM; in the experiment with NCI-H460 lung, > 10 µM; in the experiment on DU-145 prostate, > 10 µM; in the experiment on A549 NSCLC, > 10 µM. Moreover, the TGI with A498 renal is > 10 µM; in the experiment with MDA-MB-435, 3.9 µM.

On to `COc1nc2c(c(=O)n1C)NC(C(O)C(O)CO)C=N2` (stereo not given), for which the TGI with SN12C renal, with OVCAR-8 ovarian, in the experiment with MCF7 breast, in the experiment with MDA-MB-231 breast, in the experiment with SK-MEL-28 melanoma and in the experiment on HL-60(TB) leukemia was > 10 µM each time. Further, the TGI in the experiment on CCRF-CEM leukemia, with OVCAR-5 ovarian, with NCI-H226 lung, with 786-0 renal, in the experiment with KM12 colon and in the experiment on SF-539 CNS was > 10 µM in each case. In addition, the total growth inhibition concentration (TGI) in the experiment on BT-549 breast, in the experiment with IGROV1 ovarian, in the experiment on MALME-3M melanoma, with NCI-H460 lung, in the experiment with DU-145 prostate and in the experiment on A549 NSCLC was > 10 µM in each case. Besides, the TGI in the experiment on A498 renal and in the experiment with MDA-MB-435 was > 10 µM throughout.

In the case of `O=c1c2ncn(CCCl)c2n(-c2ccccc2)c(=S)n1-c1ccccc1`, the TGI in the experiment on SN12C renal, with OVCAR-8 ovarian, with MCF7 breast, with MDA-MB-231 breast, with SK-MEL-28 melanoma and in the experiment on HL-60(TB) leukemia was > 100 µM throughout. Further, the TGI in the experiment on CCRF-CEM leukemia, with OVCAR-5 ovarian, with NCI-H226 lung, in the experiment on 786-0 renal, with KM12 colon and with SF-539 CNS was > 100 µM in each case. Moreover, the TGI in the experiment with BT-549 breast, with IGROV1 ovarian, with MALME-3M melanoma, in the experiment on NCI-H460 lung, in the experiment with DU-145 prostate and in the experiment on A549 NSCLC was > 100 µM in each case. Also, the TGI with A498 renal and in the experiment on MDA-MB-435 was > 100 µM throughout.

Regarding `Oc1ccc2ccccc2c1Cc1c(O)ccc2ccccc12`, the TGI was determined as 34.6 µM with SN12C renal; 36.9 µM with OVCAR-8 ovarian; 53.9 µM in the experiment with MCF7 breast; 40.9 µM with MDA-MB-231 breast; 40.7 µM in the experiment on SK-MEL-28 melanoma; 38.7 µM in the experiment on HL-60(TB) leukemia. Besides, the TGI was 45.8 µM in the experiment on CCRF-CEM leukemia; 33.2 µM in the experiment on OVCAR-5 ovarian; 45.5 µM with NCI-H226 lung; 41.7 µM with 786-0 renal; 43.9 µM with KM12 colon; 42.2 µM in the experiment on SF-539 CNS. In addition, the TGI with BT-549 breast was 33.6 µM; with IGROV1 ovarian, 13.4 µM; in the experiment on MALME-3M melanoma, 28.9 µM; in the experiment on NCI-H460 lung, > 100 µM; with DU-145 prostate, 38.1 µM; with A549 NSCLC, 39.9 µM. Besides, the TGI in the experiment with A498 renal is 39.4 µM; in the experiment on MDA-MB-435, 31.5 µM.

For `Oc1[nH]c2ccccc2c1N=NC(=S)N1CCCC1`, the TGI with SN12C renal was 31.9 µM; with OVCAR-8 ovarian it was 13.6 µM; in the experiment on MCF7 breast, > 56.6 µM; in the experiment with MDA-MB-231 breast it was 55.7 µM; in the experiment with SK-MEL-28 melanoma, > 100 µM; with HL-60(TB) leukemia, 8.83 µM. The TGI in the experiment with CCRF-CEM leukemia is 6.78 µM; with OVCAR-5 ovarian, > 82.6 µM; in the experiment on NCI-H226 lung it was 1.88 µM; in the experiment with 786-0 renal it was 17.3 µM; in the experiment with KM12 colon, > 49.5 µM; with SF-539 CNS, 10.7 µM. Moreover, the TGI in the experiment on BT-549 breast is 22.8 µM; in the experiment with IGROV1 ovarian, 15 µM; with MALME-3M melanoma it was 9.82 µM; in the experiment on NCI-H460 lung, 9.42 µM; in the experiment with DU-145 prostate, > 100 µM; in the experiment with A549 NSCLC, 13.6 µM. Besides, the TGI in the experiment on A498 renal turned out to be 19.2 µM; in the experiment with MDA-MB-435, 29.5 µM.

As for `CCOc1ccc2c(c1)NC(=O)C(C1OC(c3ccccc3)=CC1=O)S2` (stereo not given), the TGI with SN12C renal was 77.9 µM; in the experiment on OVCAR-8 ovarian, 55.7 µM; in the experiment on MCF7 breast it was 30.4 µM; in the experiment with MDA-MB-231 breast, 60.5 µM; in the experiment with SK-MEL-28 melanoma, 68.8 µM; in the experiment with HL-60(TB) leukemia, > 100 µM. Besides, the TGI in the experiment on CCRF-CEM leukemia was 10.9 µM; with OVCAR-5 ovarian, 36.5 µM; with NCI-H226 lung, 67.5 µM; with 786-0 renal, 80.5 µM; in the experiment on KM12 colon, 66.3 µM; in the experiment with SF-539 CNS it was 45 µM. Also, the TGI in the experiment with BT-549 breast was 65.9 µM; in the experiment on IGROV1 ovarian, 53.2 µM; with MALME-3M melanoma it was 44.5 µM; in the experiment with NCI-H460 lung it was 39 µM; with DU-145 prostate, > 100 µM; in the experiment with A549 NSCLC, 46.8 µM. In addition, the TGI is > 100 µM with A498 renal and 44.4 µM with MDA-MB-435.
